System: dopaminergic (DAT) transporter
Assay: DAT immunolabeling in striatum, L61 ASYN transgenic mice
Format: in vivo
Details: 3 months
Protocol: The harvested brain tissues were drop fixed using 4% PFA and sectioned on a vibratome, and representative sections corresponding to the striatum and cerebellum were assessed for DAT with IHC staining.
Immunolabeling studies of DAT were conducted using a monoclonal antibody (1:500; MAB369; Millipore, Temecula, Calif.) and a biotinylated secondary antibody (1:100; BA4000, Vector Labs) and analysis was performed on blindcoded sections from Line 61 transgenic and non-transgenic mice. Slides were digitized using a high resolution automated Nanozoomer slide scanner (Hamamatsu Corp.). Digitized images were analyzed using Halo (Indica Labs) image analysis software package by placing an ROI frame within the dorsal striatum and another within a separate reference brain region (for normalization of DAT signal). A thresholding algorithm was defined and then applied equally to all images to determine the average optical density of DAT immunolabeling across each ROI The results of the analysis were then exported for graphing and statistical analysis and the striatal DAT:cortical (reference region) DAT optical densities ratio was calculated for each subject.
Quantification of DAT density was carried out by calculating the immunofluorescence in striatal sections against that in cerebellum sections to derive a striatal-to-reference ratio.

## O=S(=O)(c1ccc(-n2cn[nH]c2=S)cc1)c1ccc(Cl)c(C(F)(F)F)c1 [Compound 1, 4-(4-((4-chloro-3-(trifluoromethyl)phenyl)sulfonyl)phenyl)-2,4-dihydro-3H-1,2,4-triazole-3-thione]
5 mg/kg or 10 mg/kg daily
  striatal levels of DAT, staining intensity in representative images vs vehicle-treated L61 mice: restoring striatal levels of DAT
10 mg/kg daily
  DAT striatal-to-reference ratio, quantification (FIG. 24): reduces the GFAP levels in a statistically significant manner

— patent US20210290597A1, “METHOD OF TREATING A CONDITION ASSOCIATED WITH NEURODEGENERATION USING INHIBITORS OF OAT3” (Neuropore Therapies, Inc., priority 2018, published 2021)
